Measured values published in the supplement of paper PMC10307832.

Key:
Assay in all cases: relative viability (nuclei count vs DMSO), 5 days (fraction); higher = more cells survive
TPCA-1 + Alpelisib = compound: C1=CC(=CC=C1C2=CC(=C(S2)NC(=O)N)C(=O)N)F [TPCA-1] + Cc1nc(NC(=O)N2CCC[C@H]2C(N)=O)sc1-c1ccnc(C(C)(C)C(F)(F)F)c1 [Alpelisib] (partner 2 µM)
Method in brief: (§1)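 A single step with final 0.05% Triton X-100, 1% formaldehyde and 1 ug/ml Hoechst fixed the cells and stained nuclei 5 days after treatment. Lung cancer cell lines in 1536-well plates had been treated by pin tool the day after seeding with one drug alone or a fixed anchor-drug dose plus five library-drug doses (not always all listed) in √10 steps, and nuclei were counted on 4× images. Relative viability is the ratio of nuclei in treated wells to nuclei in vehicle wells, taken as the median of duplicate plates.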

TPCA-1 + Bortezomib = compound: C1=CC(=CC=C1C2=CC(=C(S2)NC(=O)N)C(=O)N)F [TPCA-1] + CC(C)C[C@H](NC(=O)[C@H](Cc1ccccc1)NC(=O)c1cnccn1)B(O)O [Bortezomib] (partner 0.002 µM)
Method in brief: as §1

[1] = compound: C1/C(=C\C2=CC=CS2)/C(=O)/C(=C/C3=CC=CS3)/C1 + NC(=O)Nc1cc(-c2cccc(F)c2)sc1C(=O)N[C@H]1CCCNC1 [AZD7762] (partner 0.2 µM)
Method in brief: as §1

[2] = compound: C1/C(=C\C2=CC=CS2)/C(=O)/C(=C/C3=CC=CS3)/C1 + O=C(CCCCCCC(=O)Nc1ccccc1)NO [Vorinostat] (partner 1 µM)
Method in brief: as §1

Cell Line	relative viability (TPCA-1 + Alpelisib; first compound 0.04 µM)	relative viability (TPCA-1 + Alpelisib; first compound 0.1265 µM)	relative viability (TPCA-1 + Alpelisib; first compound 0.4 µM)	relative viability (TPCA-1 + Alpelisib; first compound 1.265 µM)	relative viability (TPCA-1 + Alpelisib; first compound 4 µM)	relative viability (TPCA-1 + Bortezomib; first compound 0.04 µM)	relative viability (TPCA-1 + Bortezomib; first compound 0.1265 µM)	relative viability (TPCA-1 + Bortezomib; first compound 0.4 µM)	relative viability (TPCA-1 + Bortezomib; first compound 1.265 µM)	relative viability (TPCA-1 + Bortezomib; first compound 4 µM)	relative viability ([1]; first compound 0.2 µM)	relative viability ([1]; first compound 0.6325 µM)	relative viability ([1]; first compound 2 µM)	relative viability ([1]; first compound 6.325 µM)	relative viability ([1]; first compound 20 µM)	relative viability ([2]; first compound 0.2 µM)	relative viability ([2]; first compound 0.6325 µM)	relative viability ([2]; first compound 2 µM)	relative viability ([2]; first compound 6.325 µM)	relative viability ([2]; first compound 20 µM)
HCC-366	0.481	0.362	0.352	0.378	0.185	1.07	0.94	1.13	0.92	0.647	0.297	0.347	0.215	0.241	0.145	0.41	0.381	0.373	0.324	0.425
HCC-827	1.09	0.933	1.08	0.905	0.491	1.06	1.06	1.09	0.964	0.89	0.21	0.192	0.245	0.226	0.245	0.999	0.897	0.908	0.764	0.822
HOP-62	1.05	0.602	0.898	0.874	0.914	0.641	0.707	0.832	0.738	0.57	0.661	0.688	0.657	0.385	0.692	0.733	0.681	0.646	0.51	0.68
LC-2-ad	0.937	0.775	0.99	0.82	0.326	1.11	1.01	0.94	1.04	0.371	0.871	0.899	0.871	0.72	0.825	0.696	0.745	0.711	0.647	0.64
LCLC-97TM1	0.249	0.241	0.223	0.248	0.187	0.654	0.654	0.608	0.475	0.0995	0.3	0.254	0.259	0.252	0.14	0.845	0.818	0.757	0.631	0.66
LCLC-103H	1.06	0.901	0.992	1	1.03	1.07	1.05	1.1	0.987	1.02	0.772	0.742	0.9	0.613	0.783	0.805	0.842	0.859	0.698	0.765
LOU-NH91	0.769	0.652	0.736	0.78	0.669	0.508	0.514	0.502	0.523	0.574	0.744	0.837	0.834	0.697	0.745	1.03	0.934	1.01	0.782	0.973
LU99A	0.564	0.445	0.5	0.388	0.243	1.32	1.13	1.01	0.971	0.48	0.413	0.295	0.415	0.248	0.29	0.461	0.475	0.462	0.441	0.387
LXF-289	1.07	0.951	1.05	0.955	0.783	1.03	0.941	0.987	1.01	0.781	1.07	1.13	1.16	1	1.07	0.821	0.829	0.772	0.732	0.724
NCI-H23	0.756	0.665	0.705	0.587	0.512	1.12	0.935	0.909	1.11	0.512	0.25	0.342	0.294	0.244	0.175	0.662	0.628	0.702	0.564	0.591
NCI-H322M	0.846	0.74	0.764	0.688	0.785	1.18	1.17	1.36	1.24	1.27	0.491	0.58	0.484	0.518	0.521	0.902	0.892	1.03	0.865	0.917
NCI-H441	0.903	0.497	0.611	0.439	0.327	0.63	0.32	0.42	0.266	0.404	1.35	1.22	1.29	1.01	1.13	0.863	0.676	0.683	0.743	0.78
NCI-H460	0.638	0.464	0.518	0.373	0.105	1.11	0.877	1.09	0.839	0.493	0.684	0.595	0.634	0.618	0.609	0.859	0.724	0.783	0.398	0.635
NCI-H596	0.545	0.485	0.442	0.428	0.345	1.07	0.976	1.07	–	0.976	1.12	1.12	1.13	0.659	1.02	0.532	0.469	0.609	0.612	0.727
NCI-H647	1.35	1.04	1.23	0.834	0.562	1.26	0.809	0.954	0.751	0.418	0.504	0.471	0.446	0.445	0.592	0.44	0.539	0.398	0.423	0.774
NCI-H650	1.11	1.02	1.02	0.633	0.859	0.877	0.898	0.923	0.326	0.554	1.14	0.952	0.897	0.937	1.11	0.432	0.436	0.419	0.413	0.373

Cell Line	relative viability (TPCA-1 + Alpelisib; first compound 0.04 µM)	relative viability (TPCA-1 + Alpelisib; first compound 0.1265 µM)	relative viability (TPCA-1 + Alpelisib; first compound 0.4 µM)	relative viability (TPCA-1 + Alpelisib; first compound 1.265 µM)	relative viability (TPCA-1 + Alpelisib; first compound 4 µM)	relative viability (TPCA-1 + Bortezomib; first compound 0.04 µM)	relative viability (TPCA-1 + Bortezomib; first compound 0.1265 µM)	relative viability (TPCA-1 + Bortezomib; first compound 0.4 µM)	relative viability (TPCA-1 + Bortezomib; first compound 1.265 µM)	relative viability (TPCA-1 + Bortezomib; first compound 4 µM)	relative viability ([1]; first compound 0.2 µM)	relative viability ([1]; first compound 0.6325 µM)	relative viability ([1]; first compound 2 µM)	relative viability ([1]; first compound 6.325 µM)	relative viability ([1]; first compound 20 µM)	relative viability ([2]; first compound 0.2 µM)	relative viability ([2]; first compound 0.6325 µM)	relative viability ([2]; first compound 2 µM)	relative viability ([2]; first compound 6.325 µM)	relative viability ([2]; first compound 20 µM)
NCI-H727	0.591	0.485	0.597	0.504	0.507	1.07	0.707	0.923	0.674	0.696	0.574	0.527	0.731	–	0.682	1.23	1.23	1.28	–	1.12
NCI-H838	0.981	0.882	0.957	0.857	0.716	1.2	0.594	0.876	0.35	0.739	0.967	0.949	0.933	0.875	0.841	0.731	0.709	0.767	0.596	0.657
NCI-H1355	0.802	0.567	0.871	0.761	0.555	1.25	1.09	1.15	1.01	0.984	0.69	0.835	0.804	0.559	0.622	0.664	0.627	0.705	0.598	0.587
NCI-H1437	0.959	0.869	1.04	0.85	0.755	0.586	0.496	0.577	0.367	0.504	1.14	1.2	1.19	1.03	1.1	0.91	0.853	0.837	0.701	0.866
NCI-H1651	1.03	0.82	0.988	1.09	0.863	0.909	0.927	0.917	0.891	0.649	0.474	0.511	0.486	0.505	0.45	0.553	0.63	0.694	0.509	0.558
NCI-H1666	1.08	0.813	0.925	1.04	0.747	0.808	0.807	0.996	0.767	0.8	0.877	0.86	0.968	0.793	0.815	1.09	1.02	0.874	0.893	0.928
NCI-H1734	0.726	0.571	0.767	0.69	0.686	1.02	0.816	1.12	0.938	0.554	0.591	0.57	0.551	0.415	0.523	0.82	0.875	0.837	0.745	0.865
NCI-H1755	0.937	0.88	0.893	0.806	0.526	0.948	0.9	1.05	0.881	0.832	0.551	0.421	0.436	0.426	0.335	0.725	0.857	0.745	0.777	0.716
NCI-H1915	1.11	1.05	1.08	1.03	0.936	0.949	0.961	0.954	0.664	0.886	0.73	0.67	0.689	0.642	0.677	0.568	0.546	0.551	0.433	0.528
NCI-H1975	0.768	0.561	0.611	0.561	0.279	0.327	0.417	0.321	0.437	0.26	0.826	0.801	0.656	0.618	0.763	0.814	0.671	0.774	0.689	0.731
NCI-H1993	0.654	–	0.711	0.633	0.731	1.13	–	1.14	1.28	0.836	0.783	0.747	0.958	0.62	0.499	0.729	0.701	0.972	0.702	0.561
NCI-H2085	0.935	0.903	1	0.939	0.933	1.13	1.06	1.04	0.965	1.01	1.03	1.05	0.926	0.932	0.932	0.739	0.808	0.857	0.7	0.715
NCI-H2087	1.06	0.871	0.916	1.06	0.418	0.777	0.709	0.666	0.815	0.455	1.46	1.29	1.18	1.17	1.25	0.623	0.656	0.7	0.616	0.361
NCI-H2126	0.759	0.673	0.753	0.786	0.596	1.15	1.04	1.07	1.06	1.09	1.04	0.933	1.08	0.862	1	0.742	0.774	0.809	0.717	0.781
NCI-H2347	1.14	0.969	1.03	0.817	0.917	0.945	–	0.894	0.662	1.16	0.788	0.696	0.866	0.65	0.792	0.627	0.561	0.601	0.61	0.667
NCI-H2405	1.06	0.599	0.805	–	0.605	0.988	0.843	1.02	0.92	0.289	0.958	0.757	0.867	0.716	0.715	0.991	1.02	1.08	0.876	1.14
